Conditions: rat; liver microsomes; pH 7.4; 15.0 min; 1.0 µM

Cc1cc(Br)ccc1NC(=O)C(NS(=O)(=O)c1cccs1)c1ccccc1 (centres undefined)
half-life: 7.26 min

Oc1ccc(-c2nc(C3CC3)nc3c2CCN(Cc2ccc(F)cc2)CC3)cc1
half-life: 2.02 min

COc1ccc(Cn2c(CCC(=O)Nc3cc(C)cc(C)c3)nc3cccnc32)cc1
half-life: 1.47 min

c1ccc(Nc2cc3c(cn2)CN(Cc2cccs2)CCN3)cc1
half-life: 1.77 min

NC1CCN(c2nc(-c3ccc(Br)cc3)cs2)CC1
half-life: > 30 min

Clc1ccc2ncc(-c3cccc(NC4CNC4)n3)n2c1
half-life: 13.6 min

Cc1ccccc1C(C(=O)NC1CCCCC1)N(C(=O)Cn1ccnc1C)c1cccc(F)c1 (centres undefined)
half-life: 5.62 min

CC(=O)Nc1nc(C)c(-c2ccc(Cl)c(S(=O)(=O)NCCO)c2)s1
half-life: > 30 min

COc1cc(-c2csc(N3CCC(C(N)=O)CC3)n2)cc(OC)c1OC
half-life: > 30 min

COc1cc(C(=O)N2CCN(c3cc(Cl)ccc3Cl)CC2)cc(OC)c1OC
half-life: 4.31 min

CC1=C[C@@H](CNC(C)C)[C@H](C(C)C)C[C@H]1Cc1nnc(-c2ccncc2)o1
half-life: 4.76 min

CCc1ccc(-n2c(=O)c3cccnc3n2CC(=O)Nc2cc(OC)ccc2OC)cc1
half-life: 1 min

CN1C(=O)c2ccccc2[S@](=O)c2ccc(C(=O)NCCc3cccs3)cc21
half-life: 7.2 min

CCCN1C(CC(C)C)=NS(=O)(=O)c2cc(NC(=O)c3ccco3)ccc21
half-life: 9.21 min

CC(C)C(=O)N1CCc2ccc(OCc3nc(C(=O)N4CCCC4)co3)cc2C1c1cccc(F)c1 (centres undefined)
half-life: 2.43 min

CC(C)(C)c1ccc(C(=O)N2CC(=O)Nc3ccc(F)cc3C2c2ccc(F)cc2)cc1 (centres undefined)
half-life: 8.57 min

CCCCc1ccc(NC(=O)c2ccc3c(c2)N(S(C)(=O)=O)CC3)cc1
half-life: 4.38 min

Cc1c([C@@H](C)C2NC[C@H](C)C[C@@H]2O)ccc2c1C[C@@H]1[C@H]2CC=C2C[C@@H](O)CC[C@@]21C (some centres undefined)
half-life: > 30 min

CSc1nn(Cc2cccc(C)c2)c(N)c1S(=O)(=O)c1ccccc1
half-life: 1.2 min

Cc1ccc(-c2[nH]n3c(=O)c4c(nc3c2C)CCCC4)cc1
half-life: 8.72 min

CC(C)Nc1oc(-c2cccc3ccccc23)nc1C#N
half-life: 24 min

COC(=O)c1ccc(Oc2nc3c(c(=O)n(C)c(=O)n3C)n2CCC(C)C)cc1
half-life: 2.7 min

COc1ccc(C)cc1NS(=O)(=O)c1ccc(-c2cnc(C3CC3)o2)cc1
half-life: 3.38 min

O=C(CSc1nc(-c2ccc(F)cc2)[nH]c1-c1ccc(F)cc1)Nc1ccc2c(c1)OCCO2
half-life: 1.19 min

Cc1sc2ncnc(Sc3nnnn3-c3ccccc3)c2c1-c1ccccc1
half-life: 1.5 min

CCN1C(=O)c2ccccc2S(=O)c2ccc(C(=O)NCc3ccccc3)cc21 (centres undefined)
half-life: 8.12 min

O=C(NCc1ccncc1)c1nc(-c2cccnc2)c2cnccn12
half-life: > 30 min

Cc1ccnc(NC(=S)N2CCC(Nc3cccc(C(F)(F)F)c3)CC2)c1
half-life: 20 min

COc1ccccc1C(=O)Nc1ccccc1C(=O)Nc1cccc(C(F)(F)F)c1
half-life: > 30 min

COc1cc(NC(=O)c2nc3ccccc3n(C)c2=O)cc(OC)c1OC
half-life: > 30 min

CC(C)(C)n1nc(-c2ccc(Cl)cc2)c2c(N)ncnc21
half-life: > 30 min

COc1ccc(-c2cc(-c3ccccc3)nc(SCC(=O)Nc3ccccc3C)c2C#N)cc1
half-life: 2.47 min

Cc1cc(C(=O)Nc2nnc(C3CCCCC3)s2)cs1
half-life: 7.1 min

O=C(O)c1cccc(-c2noc(-c3ccccc3F)n2)c1
half-life: > 30 min

O=c1c(-c2ccc(O)cc2)coc2cc(O)ccc12
half-life: > 30 min

c1ccc(Nc2cc(-c3ccoc3)ncn2)cc1
half-life: 8.6 min

CCOC(=O)c1ccc(NC(=O)c2sc3nc4c(cc3c2N)N2CCC4CC2)cc1
half-life: 1.21 min

O=S(=O)(Nc1nccs1)c1ccc(Nc2nc(-c3ccc(F)cc3)cs2)cc1
half-life: > 30 min

O=C1C2=C(Nc3ccccc3SC2c2ccco2)c2ccccc21 (centres undefined)
half-life: 4.01 min

Brc1ccc(-c2csc(N3CCC(c4nn[nH]n4)CC3)n2)cc1
half-life: > 30 min

CCOc1ccc(CCNC(=O)c2cc3sccc3n2Cc2ccc(F)cc2F)cc1OCC
half-life: 1.8 min

NC(=O)C1CCN(c2nc(-c3ccc(OC(F)(F)F)cc3)cs2)CC1
half-life: 7.66 min

CCCCNc1oc(-c2cccc3ccccc23)nc1C#N
half-life: 5.78 min

Cc1c(-c2cccc(NC(=O)c3ccc(F)c(F)c3)c2)nc2ncccn12
half-life: 12.6 min

O=C(Nc1ccc(-c2nc3cc(NC(=O)c4ccccc4Cl)ccc3o2)cc1)c1ccccc1Cl
half-life: > 30 min

CCN1C(=O)c2ccccc2S(=O)c2ccc(NC(=O)Cc3ccc(OC)cc3)cc21 (centres undefined)
half-life: 6.1 min

COc1cccc(CNc2ccc(S(=O)(=O)Nc3cccc4ccccc34)cc2)c1O
half-life: 5.8 min

O=S(=O)(c1ccccc1)N1CCN(c2nc(-c3ccc(Br)cc3)cs2)CC1
half-life: 27.7 min

CCOC(=O)c1ccc(-n2cnc3cc(C(=O)N4CCCCC4)ccc32)cc1
half-life: 1.7 min

CCOc1ccc(C2C(C(=O)Nc3ccccc3OC)=C(C)Nc3c(C(=O)Nc4cccc(C)c4)cnn32)cc1 (centres undefined)
half-life: 4.18 min

N#Cc1ccccc1-c1csc(N2CCC(C(N)=O)CC2)n1
half-life: 3.76 min

O=C(NC1CCCc2c1cnn2-c1ccc(F)cc1F)c1ccccc1 (centres undefined)
half-life: > 30 min

Cc1ccc(-c2cc(C(=O)Nc3ncco3)c3ccccc3n2)cc1C
half-life: 5.7 min

Cc1ccc(C(N)=O)cc1Nc1nccc(-c2cn(C(C)C)c3cnccc23)n1
half-life: > 30 min

Cc1ccc(NC(=O)C(Cc2ccccc2)NS(=O)(=O)c2cccs2)cc1Cl (centres undefined)
half-life: 1.12 min

Oc1ccc(C(=S)N2CCN(c3cccc(Cl)c3)CC2)cc1
half-life: 1.7 min

O=[S+]([O-])(Nc1ccc(N2CCNCC2)cc1)c1ccc(NCc2ccc(Cl)cc2O)cc1
half-life: > 30 min

Cn1c2ccccc2c2c3c(c4c5ccccc5n(CCC#N)c4c21)CNC3=O
half-life: 4.29 min

COc1ccc(-c2ccc(Nc3nc(-c4ccncc4)nc4ccccc34)cc2F)cc1F
half-life: 11 min

CC1CCc2ccc(F)cc2N1S(=O)(=O)c1cccs1 (centres undefined)
half-life: 2.7 min

Fc1ccc(Nc2nc(-c3ccnc(C(F)(F)F)c3)nc3ccccc23)cc1F
half-life: > 30 min

Cc1nnn(C)c1-c1cnc2c3ccc(C(C)(C)O)cc3n([C@H](c3ccccc3)C3CCOCC3)c2c1
half-life: > 30 min

Cc1ccc2cccc(NC(=O)c3ccc(OC(C)C)cc3)c2n1
half-life: 17.9 min

NC(=O)C1CCN(c2nccc(Cl)n2)CC1
half-life: > 30 min

O=C(Nc1ccccc1-c1cn2c(CN3CCNCC3)csc2n1)c1cnc2ccccc2n1
half-life: > 30 min

Cc1ccccc1C(C(=O)NC1CCCC1)N(C(=O)Cn1cnc2ccccc21)c1cccc(F)c1 (centres undefined)
half-life: 1.67 min

COc1ccc(-c2cc3nccn3c(Nc3ncccc3C(N)=O)n2)cc1OC
half-life: > 30 min

COc1ccc(Cn2c(=O)[nH]c3cc(C(=O)NCCCN4CCCCC4)ccc3c2=O)cc1
half-life: > 30 min

Cc1ccc(-c2ccc(CNc3nc(-c4ccccc4C(C)C)nc4ccccc34)cc2)cn1
half-life: 8.23 min

Cc1ccc(-n2ncc3c(NCCCN(C)C)ncnc32)cc1Cl
half-life: 8.9 min

CN1CC=C(c2nc(Nc3ccc(F)c(F)c3)c3ccccc3n2)CC1
half-life: 3.6 min

Cc1ccc(C(=O)NC2CCN(c3cnn(CC4CC4)c(=O)c3)CC2)cc1C
half-life: 16.3 min

CCOc1ccc(S(=O)(=O)NCc2cccnc2)cc1NC(=O)c1ccccc1F
half-life: 2.82 min

Nc1c(S(=O)(=O)c2cccs2)c2nc3ccccc3nc2n1Cc1ccccc1
half-life: 1.27 min

CC[C@H]1NC(=O)[C@@H](NC(=O)c2ncccc2O)[C@@H](C)OC(=O)[C@H](c2ccccc2)NC(=O)[C@@H]2CC(=O)CCN2C(=O)[C@H](Cc2ccccc2)N(C)C(=O)[C@@H]2CCCN2C1=O
half-life: > 30 min

Cc1ccnc(NC(=S)N2CC[C@@H](Nc3cccc(C(F)(F)F)c3)C2)c1
half-life: 3.5 min

Cc1cc(C)nc(NC(=S)N2CCN(c3ccncc3)CC2)c1
half-life: > 30 min

Cc1cc(NS(=O)(=O)c2ccc(NCCc3ccc(Cl)c(Cl)c3)cc2)no1
half-life: 12 min

CN1CCN(c2ccc(Nc3nn4c(=O)c5ccccc5nc4s3)cc2)CC1
half-life: 15.2 min

CCOc1ccc(CCNC(=O)c2cc3ccccc3n2Cc2ccccn2)cc1OCC
half-life: 1.5 min

CCOc1ccc(CCNC(=O)c2cc3cccnc3n2Cc2cccc(C)c2)cc1OCC
half-life: 1.7 min

NC(=O)C1CCN(c2nc(-c3cccc(Cl)c3)cs2)CC1
half-life: 1.88 min

c1cc(OCCN2CCCCC2)cc(-c2n[nH]c3ccc(-c4ncn[nH]4)cc23)c1
half-life: > 30 min

COC(=O)c1ccc2c(C(=Nc3ccc(N(C)C(=O)CN4CCN(C)CC4)cc3)c3ccccc3)c(O)[nH]c2c1
half-life: > 30 min

Cc1cn(-c2cc(NC(=O)c3ccc(C)c(Nc4nccc(-c5cccnc5)n4)c3)cc(C(F)(F)F)c2)cn1
half-life: > 30 min

CCN(CC)S(=O)(=O)c1ccc2oc(C(=O)Nc3ccc(Br)cc3F)c(C)c2c1
half-life: 7.91 min

CC(C)c1ccccc1-c1ncc(F)c(NCC2CCN(c3cccnc3)CC2)n1
half-life: 3 min

CC(C)(C)C1CCc2c(sc(NC(=O)c3ccncc3)c2C(N)=O)C1 (centres undefined)
half-life: > 30 min

NCC(=O)Nc1cccc(-c2nn3c(=O)cc(N4CCNCC4)nc3s2)c1
half-life: > 30 min

CCCCCn1c(CCCNC(=O)c2ccccc2OC)nc2ccccc21
half-life: 1.31 min

CCOc1ccc(CCNC(=O)c2cc3ccccc3n2CCN2CCOCC2)cc1OCC
half-life: 1.6 min

CC(=O)Nc1ccc(NC(=O)C(NS(=O)(=O)c2ccc(Br)s2)c2ccccc2)cc1 (centres undefined)
half-life: 8.13 min

COc1ccc(-n2nc(C3CCCN(C(=O)c4ccc(C)cc4)C3)[nH]c2=O)cc1 (centres undefined)
half-life: 23.9 min

CN(C)CCN1C(=O)c2cccc3cc(N)cc(c23)C1=O
half-life: > 30 min

Cc1cc(C)c(C(=O)Nc2cccc([S+](=O)([O-])N3CCCCC3)c2)[nH]1
half-life: 3 min

FC(F)(F)c1cccc(Sc2nc(-c3ccccc3)nnc2C(F)(F)F)c1
half-life: 11 min

CC(=O)NCCNC[C@@H]1C=C(C)[C@H](Cc2nnc(-c3ccccc3)o2)C[C@H]1C(C)C
half-life: 5.06 min

N#Cc1cnc(NS(=O)(=O)c2ccc(NC(=O)Cc3ccc(F)c(Cl)c3)cc2)s1
half-life: > 30 min

Nc1nc2c(s1)C(c1c(Cl)cccc1Cl)CC(=O)N2 (centres undefined)
half-life: 23.8 min

CC(=O)c1cccc(-c2csc3ncnc(Sc4nnnn4C)c23)c1
half-life: 3.08 min

CCCCCNc1oc(-c2cccc3ccccc23)nc1C#N
half-life: 2.1 min

CCN(C(=O)C(NS(=O)(=O)c1ccc(Br)s1)c1ccccc1)c1ccc(C)c(C)c1 (centres undefined)
half-life: 0.99 min

Cc1ccnc(C)c1C(=O)Nc1cccc([S+](=O)([O-])N(C)C)c1
half-life: > 30 min

Cc1cc(-c2cc3c(nc2-c2ccccc2)nc(C(=O)NCCN(C)C)n3C)ccn1
half-life: > 30 min
